{
  "source": "paper PMC11397024",
  "about": "“Strategic Fluorination to Achieve a Potent, Selective, Metabolically Stable, and Orally Bioavailable Inhibitor of CSNK2” (Molecules, 2024)",
  "assay_in_all_cases": "NanoBRET K192",
  "assay_type_in_all_cases": "cell-based",
  "key": {"BMX": {"biological_target": "T1, BMX (Homo sapiens, UniProt P51813)", "T1 construct": "purchased Promega (NanoBRET Target Engagement K192 Kinase Selectivity System)", "conditions": "HEK293", "how_it_was_run": "(§1)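 HEK293 cells were transfected overnight with NanoLuc–kinase fusion vectors, then treated for 2 h at 37 °C with compound (added as 100 μM working solution) plus K10 tracer. BRET was read at 450/610 nm after substrate and extracellular inhibitor, and fractional occupancy was calculated against no-compound controls.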"}, "BTK": {"biological_target": "T2, BTK (Homo sapiens, UniProt Q06187)", "T2 construct": "purchased Promega (NanoBRET Target Engagement K192 Kinase Selectivity System)", "T2 sequence (Q06187 whole entry)": "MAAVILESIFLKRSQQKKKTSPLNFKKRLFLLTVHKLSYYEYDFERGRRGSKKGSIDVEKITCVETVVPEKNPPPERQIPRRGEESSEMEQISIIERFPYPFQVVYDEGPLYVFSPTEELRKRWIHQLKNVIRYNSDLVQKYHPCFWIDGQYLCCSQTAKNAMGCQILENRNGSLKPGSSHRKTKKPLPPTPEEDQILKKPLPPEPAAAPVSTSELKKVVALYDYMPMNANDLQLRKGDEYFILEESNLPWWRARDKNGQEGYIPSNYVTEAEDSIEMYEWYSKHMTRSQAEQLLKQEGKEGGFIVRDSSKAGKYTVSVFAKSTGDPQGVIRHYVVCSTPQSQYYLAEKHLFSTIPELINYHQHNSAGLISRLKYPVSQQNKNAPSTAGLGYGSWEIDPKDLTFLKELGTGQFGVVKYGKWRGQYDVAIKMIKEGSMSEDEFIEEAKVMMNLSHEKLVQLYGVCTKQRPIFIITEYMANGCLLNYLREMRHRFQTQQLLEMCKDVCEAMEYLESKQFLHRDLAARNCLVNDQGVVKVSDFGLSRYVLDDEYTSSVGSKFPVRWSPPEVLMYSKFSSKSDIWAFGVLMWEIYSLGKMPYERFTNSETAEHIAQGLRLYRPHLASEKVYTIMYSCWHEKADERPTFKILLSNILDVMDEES", "conditions": "HEK293", "how_it_was_run": "as §1"}, "CDK18 + Y": {"biological_target": "T3, CDK18 + Y (Homo sapiens, UniProt Q07002)", "T3 construct": "purchased Promega (NanoBRET Target Engagement K192 Kinase Selectivity System)", "T3 sequence (Q07002 whole entry)": "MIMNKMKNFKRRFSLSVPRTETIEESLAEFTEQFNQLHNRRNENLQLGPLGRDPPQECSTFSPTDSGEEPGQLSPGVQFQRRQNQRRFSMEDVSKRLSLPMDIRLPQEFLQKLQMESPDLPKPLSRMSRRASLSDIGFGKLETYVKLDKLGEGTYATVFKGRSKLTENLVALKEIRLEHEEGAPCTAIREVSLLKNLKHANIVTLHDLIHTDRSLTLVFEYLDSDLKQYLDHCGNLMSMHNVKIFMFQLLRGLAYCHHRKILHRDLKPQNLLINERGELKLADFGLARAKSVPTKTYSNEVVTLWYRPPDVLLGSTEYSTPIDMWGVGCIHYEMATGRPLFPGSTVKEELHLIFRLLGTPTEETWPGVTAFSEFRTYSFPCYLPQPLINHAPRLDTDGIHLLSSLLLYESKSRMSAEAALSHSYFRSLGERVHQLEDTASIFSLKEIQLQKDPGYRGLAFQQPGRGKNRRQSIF", "T3 sequence (Q8ND76 whole entry partner)": "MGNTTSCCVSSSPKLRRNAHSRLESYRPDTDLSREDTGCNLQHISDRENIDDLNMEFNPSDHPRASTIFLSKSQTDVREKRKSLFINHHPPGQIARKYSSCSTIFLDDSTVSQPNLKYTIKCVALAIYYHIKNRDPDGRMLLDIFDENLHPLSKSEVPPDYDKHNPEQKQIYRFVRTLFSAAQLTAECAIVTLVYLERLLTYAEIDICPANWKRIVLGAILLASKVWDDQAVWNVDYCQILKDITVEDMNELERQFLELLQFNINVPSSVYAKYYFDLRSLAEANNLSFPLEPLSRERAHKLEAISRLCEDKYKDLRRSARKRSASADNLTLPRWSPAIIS", "conditions": "HEK293", "how_it_was_run": "as §1"}, "CDK3 + E1": {"biological_target": "T4, CDK3 + E1 (Homo sapiens, UniProt Q00526)", "T4 construct": "purchased Promega (NanoBRET Target Engagement K192 Kinase Selectivity System)", "conditions": "HEK293", "how_it_was_run": "as §1"}, "CDK5 + CDK5R1": {"biological_target": "T5, CDK5 + CDK5R1 (Homo sapiens, UniProt Q00535)", "T5 construct": "purchased Promega (NanoBRET Target Engagement K192 Kinase Selectivity System)", "T5 sequence (Q00535 whole entry)": "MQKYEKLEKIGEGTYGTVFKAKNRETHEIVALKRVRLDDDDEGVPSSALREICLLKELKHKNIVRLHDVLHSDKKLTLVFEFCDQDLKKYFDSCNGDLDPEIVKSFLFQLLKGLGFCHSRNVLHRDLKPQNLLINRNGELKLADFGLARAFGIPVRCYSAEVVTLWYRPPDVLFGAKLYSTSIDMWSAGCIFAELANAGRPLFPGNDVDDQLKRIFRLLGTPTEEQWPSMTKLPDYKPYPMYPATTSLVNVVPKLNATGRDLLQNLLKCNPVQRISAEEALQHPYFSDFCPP", "T5 sequence (Q15078 whole entry partner)": "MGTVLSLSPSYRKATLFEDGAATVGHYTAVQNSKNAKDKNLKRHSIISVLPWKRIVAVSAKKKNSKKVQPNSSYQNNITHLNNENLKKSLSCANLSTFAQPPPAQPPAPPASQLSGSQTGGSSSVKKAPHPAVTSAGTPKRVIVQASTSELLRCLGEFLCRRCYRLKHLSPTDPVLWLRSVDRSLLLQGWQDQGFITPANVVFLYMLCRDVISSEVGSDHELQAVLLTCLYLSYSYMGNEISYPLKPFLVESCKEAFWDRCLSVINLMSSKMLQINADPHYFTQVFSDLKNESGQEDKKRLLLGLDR", "conditions": "HEK293", "how_it_was_run": "as §1"}, "CLK1": {"biological_target": "T6, CLK1 (Homo sapiens, UniProt P49759)", "T6 construct": "purchased Promega (NanoBRET Target Engagement K192 Kinase Selectivity System)", "T6 sequence (P49759 whole entry)": "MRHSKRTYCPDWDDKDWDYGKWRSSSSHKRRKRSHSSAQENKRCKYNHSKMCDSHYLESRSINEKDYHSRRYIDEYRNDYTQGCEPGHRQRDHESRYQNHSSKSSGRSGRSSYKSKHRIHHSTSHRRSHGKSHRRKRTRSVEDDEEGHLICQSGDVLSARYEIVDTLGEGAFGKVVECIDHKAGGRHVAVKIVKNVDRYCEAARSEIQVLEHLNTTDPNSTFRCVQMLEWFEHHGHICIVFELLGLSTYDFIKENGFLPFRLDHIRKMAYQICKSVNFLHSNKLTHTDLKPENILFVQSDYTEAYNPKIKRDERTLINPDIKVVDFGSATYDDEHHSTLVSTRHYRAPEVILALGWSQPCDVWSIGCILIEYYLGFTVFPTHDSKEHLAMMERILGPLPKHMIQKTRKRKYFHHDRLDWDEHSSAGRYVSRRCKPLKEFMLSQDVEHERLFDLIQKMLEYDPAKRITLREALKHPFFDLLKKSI", "how_it_was_run": "as §1"}, "CSNK2A2": {"biological_target": "T7, CSNK2A2 (Homo sapiens, UniProt P19784)", "T7 construct": "expressed in transfected cells; host or cells: HEK293", "T7 sequence (P19784 whole entry)": "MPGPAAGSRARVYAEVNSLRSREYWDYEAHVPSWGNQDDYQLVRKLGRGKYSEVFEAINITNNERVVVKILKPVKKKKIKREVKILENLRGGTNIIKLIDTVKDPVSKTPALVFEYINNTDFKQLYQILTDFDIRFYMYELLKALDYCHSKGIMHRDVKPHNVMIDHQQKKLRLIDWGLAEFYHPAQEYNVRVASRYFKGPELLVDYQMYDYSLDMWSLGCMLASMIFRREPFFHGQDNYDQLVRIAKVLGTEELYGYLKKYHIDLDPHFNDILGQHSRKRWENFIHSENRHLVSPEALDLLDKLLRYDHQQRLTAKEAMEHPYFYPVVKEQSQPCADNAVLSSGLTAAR", "how_it_was_run": "as §1"}, "DYRK1A": {"biological_target": "T8, DYRK1A (Homo sapiens, UniProt Q13627)", "T8 construct": "purchased Promega (NanoBRET Target Engagement K192 Kinase Selectivity System)", "how_it_was_run": "as §1"}, "FER": {"biological_target": "T9, FER (Homo sapiens, UniProt P16591)", "T9 construct": "purchased Promega (NanoBRET Target Engagement K192 Kinase Selectivity System)", "conditions": "HEK293", "how_it_was_run": "as §1"}, "FGFR4": {"biological_target": "T10, FGFR4 (Homo sapiens, UniProt P22455)", "T10 construct": "purchased Promega (NanoBRET Target Engagement K192 Kinase Selectivity System)", "conditions": "HEK293", "how_it_was_run": "as §1"}, "FYN": {"biological_target": "T11, FYN (Homo sapiens, UniProt P06241)", "T11 construct": "purchased Promega (NanoBRET Target Engagement K192 Kinase Selectivity System)", "T11 sequence (P06241 whole entry)": "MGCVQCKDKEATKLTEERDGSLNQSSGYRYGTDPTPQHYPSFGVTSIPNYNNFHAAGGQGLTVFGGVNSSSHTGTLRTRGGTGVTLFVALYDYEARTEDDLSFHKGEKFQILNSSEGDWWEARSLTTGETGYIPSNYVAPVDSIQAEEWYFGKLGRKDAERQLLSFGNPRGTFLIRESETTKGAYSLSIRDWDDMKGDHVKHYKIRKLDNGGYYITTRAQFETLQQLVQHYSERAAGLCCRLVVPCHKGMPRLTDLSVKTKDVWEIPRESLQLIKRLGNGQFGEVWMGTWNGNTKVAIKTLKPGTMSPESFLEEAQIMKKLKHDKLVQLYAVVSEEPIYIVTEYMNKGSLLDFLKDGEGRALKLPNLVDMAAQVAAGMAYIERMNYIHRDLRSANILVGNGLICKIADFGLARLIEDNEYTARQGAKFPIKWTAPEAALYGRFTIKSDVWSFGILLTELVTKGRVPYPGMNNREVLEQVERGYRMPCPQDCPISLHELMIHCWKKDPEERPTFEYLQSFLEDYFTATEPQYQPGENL", "conditions": "HEK293", "how_it_was_run": "as §1"}, "IRAK4": {"biological_target": "T12, IRAK4 (Homo sapiens, UniProt Q9NWZ3)", "T12 construct": "purchased Promega (NanoBRET Target Engagement K192 Kinase Selectivity System)", "conditions": "HEK293", "how_it_was_run": "as §1"}, "LATS2": {"biological_target": "T13, LATS2 (Homo sapiens, UniProt Q9NRM7)", "T13 construct": "purchased Promega (NanoBRET Target Engagement K192 Kinase Selectivity System)", "conditions": "HEK293", "how_it_was_run": "as §1"}, "MAP3K19": {"biological_target": "T14, MAP3K19 (Homo sapiens, UniProt Q56UN5)", "T14 construct": "purchased Promega (NanoBRET Target Engagement K192 Kinase Selectivity System)", "conditions": "HEK293", "how_it_was_run": "as §1"}, "MAST3": {"biological_target": "T15, MAST3 (Homo sapiens, UniProt O60307)", "T15 construct": "purchased Promega (NanoBRET Target Engagement K192 Kinase Selectivity System)", "conditions": "HEK293", "how_it_was_run": "as §1"}, "MAST4": {"biological_target": "T16, MAST4 (Homo sapiens, UniProt O15021)", "T16 construct": "purchased Promega (NanoBRET Target Engagement K192 Kinase Selectivity System)", "conditions": "HEK293", "how_it_was_run": "as §1"}, "MYLK2": {"biological_target": "T17, MYLK2 (Homo sapiens, UniProt Q9H1R3)", "T17 construct": "purchased Promega (NanoBRET Target Engagement K192 Kinase Selectivity System)", "conditions": "HEK293", "how_it_was_run": "as §1"}, "MYLK3": {"biological_target": "T18, MYLK3 (Homo sapiens, UniProt Q32MK0)", "T18 construct": "purchased Promega (NanoBRET Target Engagement K192 Kinase Selectivity System)", "T18 sequence (Q32MK0 whole entry)": "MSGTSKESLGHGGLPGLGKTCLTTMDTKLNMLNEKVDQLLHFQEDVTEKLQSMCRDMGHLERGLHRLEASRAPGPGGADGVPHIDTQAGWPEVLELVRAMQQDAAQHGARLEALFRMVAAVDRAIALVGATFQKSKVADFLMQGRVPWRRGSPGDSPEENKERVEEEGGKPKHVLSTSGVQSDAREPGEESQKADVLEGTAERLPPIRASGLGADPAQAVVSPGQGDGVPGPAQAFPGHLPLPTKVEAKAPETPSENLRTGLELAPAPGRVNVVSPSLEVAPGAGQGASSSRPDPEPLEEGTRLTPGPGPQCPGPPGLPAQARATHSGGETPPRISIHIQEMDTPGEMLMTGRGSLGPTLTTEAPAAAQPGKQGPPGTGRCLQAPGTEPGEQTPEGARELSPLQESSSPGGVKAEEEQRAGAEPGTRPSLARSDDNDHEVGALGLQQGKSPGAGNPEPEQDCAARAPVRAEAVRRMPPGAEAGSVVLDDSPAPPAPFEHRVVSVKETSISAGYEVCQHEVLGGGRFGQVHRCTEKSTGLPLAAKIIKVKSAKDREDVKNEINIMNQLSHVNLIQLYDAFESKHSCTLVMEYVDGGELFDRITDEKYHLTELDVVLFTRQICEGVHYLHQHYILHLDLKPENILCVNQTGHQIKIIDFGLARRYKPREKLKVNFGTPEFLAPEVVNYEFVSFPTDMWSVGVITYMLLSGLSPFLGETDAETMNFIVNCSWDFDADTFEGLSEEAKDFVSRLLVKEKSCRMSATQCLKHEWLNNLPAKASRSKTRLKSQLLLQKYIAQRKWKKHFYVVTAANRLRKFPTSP", "conditions": "HEK293", "how_it_was_run": "as §1"}, "NEK3": {"biological_target": "T19, NEK3 (Homo sapiens, UniProt P51956)", "T19 construct": "host or cells: HEK293", "conditions": "HEK293", "how_it_was_run": "as §1"}, "PAK4": {"biological_target": "T20, PAK4 (Homo sapiens, UniProt O96013)", "T20 construct": "purchased Promega (NanoBRET Target Engagement K192 Kinase Selectivity System)", "conditions": "HEK293", "how_it_was_run": "as §1"}, "PLK3": {"biological_target": "T21, PLK3 (Homo sapiens, UniProt Q9H4B4)", "T21 construct": "purchased Promega (NanoBRET Target Engagement K192 Kinase Selectivity System)", "T21 sequence (Q9H4B4 whole entry)": "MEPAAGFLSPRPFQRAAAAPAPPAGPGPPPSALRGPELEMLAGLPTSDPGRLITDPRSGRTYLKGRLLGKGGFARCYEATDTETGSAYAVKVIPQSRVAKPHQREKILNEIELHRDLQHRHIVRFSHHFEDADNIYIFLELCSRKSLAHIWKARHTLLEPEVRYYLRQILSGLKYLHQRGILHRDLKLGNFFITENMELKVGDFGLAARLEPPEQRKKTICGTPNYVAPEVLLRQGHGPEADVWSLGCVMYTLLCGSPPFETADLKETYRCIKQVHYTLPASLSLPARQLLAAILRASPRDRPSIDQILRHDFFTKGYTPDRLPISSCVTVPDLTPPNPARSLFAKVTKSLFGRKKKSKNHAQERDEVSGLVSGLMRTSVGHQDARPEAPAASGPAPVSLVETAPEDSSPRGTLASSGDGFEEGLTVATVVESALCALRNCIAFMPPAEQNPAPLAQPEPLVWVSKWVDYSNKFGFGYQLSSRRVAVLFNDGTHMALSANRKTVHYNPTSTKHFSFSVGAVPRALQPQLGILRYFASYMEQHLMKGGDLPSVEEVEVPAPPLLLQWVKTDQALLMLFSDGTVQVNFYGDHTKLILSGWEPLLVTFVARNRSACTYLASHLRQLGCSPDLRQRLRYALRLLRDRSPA", "conditions": "HEK293", "how_it_was_run": "as §1"}, "PRKAA1": {"biological_target": "T22, PRKAA1 (Homo sapiens, UniProt Q13131)", "T22 construct": "purchased Promega (NanoBRET Target Engagement K192 Kinase Selectivity System)", "conditions": "HEK293", "how_it_was_run": "as §1"}, "PTK2": {"biological_target": "T23, PTK2 (Homo sapiens, UniProt Q05397)", "T23 construct": "purchased Promega (NanoBRET Target Engagement K192 Kinase Selectivity System)", "conditions": "HEK293", "how_it_was_run": "as §1"}, "RET": {"biological_target": "T24, RET (Homo sapiens, UniProt P07949)", "T24 construct": "purchased Promega (NanoBRET Target Engagement K192 Kinase Selectivity System)", "conditions": "HEK293", "how_it_was_run": "as §1"}, "RPS6KA6": {"biological_target": "T25, RPS6KA6 (Homo sapiens, UniProt Q9UK32)", "T25 construct": "purchased Promega (NanoBRET Target Engagement K192 Kinase Selectivity System)", "conditions": "HEK293", "how_it_was_run": "as §1"}, "TIE1": {"biological_target": "T26, TIE1 (Homo sapiens, UniProt P35590)", "T26 construct": "purchased Promega (NanoBRET Target Engagement K192 Kinase Selectivity System)", "conditions": "HEK293", "how_it_was_run": "as §1"}, "WEE2": {"biological_target": "T27, WEE2 (Homo sapiens, UniProt P0C1S8)", "T27 construct": "purchased Promega (NanoBRET Target Engagement K192 Kinase Selectivity System)", "conditions": "HEK293", "how_it_was_run": "as §1"}},
  "data": [
    {"compound": "CCC(=O)Nc1cc(Nc2cc(NC3CC3)n3ncc(C#N)c3n2)c(F)cc1N1CCC[C@H](NC)C1", "note": "[Compound 2, (S)-N-(5-((3-cyano-7-(cyclopropylamino)pyrazolo[1,5-a]pyrimidin-5-yl)amino)-4-fluoro-2-(3-(methylamino)piperidin-1-yl)phenyl)propionamide]", "values": [
      {"measurement": "receptor occupancy at 10 µM", "setting": "BMX", "value": 0.6, "unit": "%"},
      {"measurement": "receptor occupancy at 10 µM", "setting": "BTK", "value": 3, "unit": "%"},
      {"measurement": "receptor occupancy at 10 µM", "setting": "CDK18 + Y", "value": 17.5, "unit": "%"},
      {"measurement": "receptor occupancy at 10 µM", "setting": "CDK3 + E1", "value": 12.1, "unit": "%"},
      {"measurement": "receptor occupancy at 10 µM", "setting": "CDK5 + CDK5R1", "value": 10.8, "unit": "%"},
      {"measurement": "% occupancy at 10 μM", "setting": "CLK1; CLK1, HEK293", "value": 76, "unit": "%"},
      {"measurement": "receptor occupancy at 10 µM", "setting": "CLK1; HEK293, CLK1", "value": 76.2, "unit": "%"},
      {"measurement": "% occupancy at 10 μM", "setting": "CSNK2A2; CSNK2A2, HEK293", "value": 97, "unit": "%"},
      {"measurement": "receptor occupancy at 10 µM", "setting": "CSNK2A2; HEK293, CSNK2A2", "value": 96.9, "unit": "%"},
      {"measurement": "% occupancy at 10 μM", "setting": "DYRK1A; DYRK1A, HEK293", "value": 71, "unit": "%"},
      {"measurement": "receptor occupancy at 10 µM", "setting": "DYRK1A; HEK293, DYRK1A", "value": 71.2, "unit": "%"},
      {"measurement": "receptor occupancy at 10 µM", "setting": "FER", "value": 3.1, "unit": "%"},
      {"measurement": "receptor occupancy at 10 µM", "setting": "FGFR4", "value": 8.2, "unit": "%"},
      {"measurement": "receptor occupancy at 10 µM", "setting": "FYN", "value": 18.1, "unit": "%"},
      {"measurement": "receptor occupancy at 10 µM", "setting": "IRAK4", "value": 9.2, "unit": "%"},
      {"measurement": "receptor occupancy at 10 µM", "setting": "LATS2", "value": 9.4, "unit": "%"},
      {"measurement": "receptor occupancy at 10 µM", "setting": "MAP3K19", "value": 2.4, "unit": "%"},
      {"measurement": "receptor occupancy at 10 µM", "setting": "MAST3", "value": -0.9, "unit": "%"},
      {"measurement": "receptor occupancy at 10 µM", "setting": "MAST4", "value": 11.4, "unit": "%"},
      {"measurement": "receptor occupancy at 10 µM", "setting": "MYLK2", "value": 13.1, "unit": "%"},
      {"measurement": "receptor occupancy at 10 µM", "setting": "MYLK3", "value": 0.4, "unit": "%"},
      {"measurement": "receptor occupancy at 10 µM", "setting": "NEK3", "value": -11.1, "unit": "%"},
      {"measurement": "receptor occupancy at 10 µM", "setting": "PAK4", "value": 4.5, "unit": "%"},
      {"measurement": "receptor occupancy at 10 µM", "setting": "PLK3", "value": 15.5, "unit": "%"},
      {"measurement": "receptor occupancy at 10 µM", "setting": "PRKAA1", "value": 3.8, "unit": "%"},
      {"measurement": "receptor occupancy at 10 µM", "setting": "PTK2", "value": 15.7, "unit": "%"},
      {"measurement": "receptor occupancy at 10 µM", "setting": "RET", "value": 1.8, "unit": "%"},
      {"measurement": "receptor occupancy at 10 µM", "setting": "RPS6KA6", "value": 10.6, "unit": "%"},
      {"measurement": "receptor occupancy at 10 µM", "setting": "TIE1", "value": 20.6, "unit": "%"},
      {"measurement": "receptor occupancy at 10 µM", "setting": "WEE2", "value": 4.5, "unit": "%"}
    ]}
  ]
}
